Experimental data taken from patent US20240216310A1, “Rapid Onset Therapeutic Anti-Depression Ketosis Enabled by D-BetaHydroxyButyric Acid Systems, Methods and Compounds for Psilocybin co-administration” (American Ketone Therapeutics LLC, priority 2022, published 2024).

Legend:
[1] = Phase 2b clinical trial reported by Compass Pathways; cited from earlier work
[2] = Blood ketone levels by Abbott blood test strip after D-BHB oral drink; assay type: in vivo, human
Source text: FIG. 8 is a graphical illustration of D-BHB exogenous ketone blood levels. FIG. 8 details rapid ketosis confirmed by Abbott blood test strip after 15 g D-BHB with palatability agent administered by oral drink. Blood ketone levels document rise from 0.1 mmol/L to 2.7 mmol/L. By supplementing an individual with exogenous ketone preparations incorporating the natural D-Beta-HydroxyButyric Acid (D-BHB) optionally combined with a palatability agent, internal body ketone levels rapidly rise when directly compared with non-supplementing individuals. The ketone body D-BHB is first and foremost an energy source, which is directly and preferentially metabolized by the brain. D-BHB is also active as a signaling mechanism and neuro-inflammation reduction agent, resulting in broad and beneficial mental health related benefits.
FIG. 9 is a graphical illustration of D-BHB exogenous ketone blood levels. FIG. 9 details rapid ketosis within 45 minutes confirmed by Abbott blood test strip after 10 g D-BHB with palatability agent administered by oral drink. Blood ketone levels document rise from 0.2 mmol/L to 1.8 mmol/L and 0.6 mmol/L to 1.9 mmol/L in a variety of test subjects. FIG. 9 reinforces the fact that supplementation by utilizing free D only BetaHydroxyButyric Acid without ketone salt or ketone ester is a reliable, reproducible method and system for rapid ketone level increase for mental health protection and maintenance. While amounts of free D only BetaHydroxyButyric Acid taken for mental health anti-depression effects may vary, it is an anticipated preferred embodiment that levels are between 5 and 30 grams of D only BetaHydroxyButyric Acid taken as needed for optimum anti-depression effects. Alternate embodiments may include lower or higher amounts, however, experimental evidence has confirmed optimal administration in this range.

[3] = Continuous glucose monitoring (Abbot Libre CGM) with carbohydrate challenge; assay type: in vivo, human; conditions: 10 g given 45 minutes before 50 g carbohydrate ingestion; compared with unsupplemented ingestion
Source text: FIG. 10 is a graphical illustration of continuous monitoring of body glucose levels. FIG. 10 depicts continuous glucose monitoring levels with carbohydrate challenge documented by Abbot Libre Continuous Glucose Monitoring (CGM) device. In this illustrative embodiment, glucose levels from a 50 g carbohydrate ingestion are depicted unaided by free D-BetaHydroxyButyric Acid on the left and repeated the following day with two 50 g carbohydrate ingestions accompanied by 10 g free D-BetaHydroxyButyric Acid administered 45 minutes before the carbohydrate insult. The data is noteworthy in that while the equivalent amount of identical (nacho chip platter) carbohydrates were consumed, the rapid glucose spike depicted in the unsupplemented ingestion is not found with 10 g D-BetaHydroxyButyric Acid accompaniment. […] As free D-BetaHydroxyButyric Acid can lower glucose while rapidly increasing ketone levels, it is believed that obtaining high ketones while lowering glucose will yield additional anti-depression benefits to high glucose sensitive individuals suffering from depression.

[4] = Continuous Ketone Meter (CKM) monitoring of body ketone levels and deep sleep; assay type: in vivo, human; conditions: 5 grams consumed 45 minutes prior to bedtime
Source text: FIG. 11 is a graphical illustration of continuous monitoring of body ketone levels resulting in improved deep sleep time due to enhanced D-BHB levels according to the claimed invention. It is noteworthy that consumption of even small amounts of free D-BetaHydroxyButyric Acid can give rise to therapeutic ketosis levels as measured by Continuous Ketone Meter (CKM). […] While free D-BetaHydroxyButyric Acid is not a sedative, even small amounts can greatly improve deep sleep quantity and quality. It is an intended and foreseeable embodiment application to increase deep sleep with free D-BetaHydroxyButyric Acid with the aim of improving mental health and anti-depression resiliency.

[5] = Preliminary data on anxiety and depression after D-BetaHydroxyButyric Acid administration; assay type: in vivo, human; conditions: individuals with mild to moderate depression, given in the absence of a salt or ester
Source text: Moreover, dietary interventions for ketogenic diet treatment of bipolar disorder are yielding compelling results. The administration of the natural form of D-BetaHydroxyButyric Acid as an exogenous compound has rapid onset and direct benefits to brain bioenergenics. […] The claimed form of D-BetaHydroxyButyric Acid is bioidentical to the natural form of ketone generated endogenously and chemically distinguishable from the artificial ‘ketone salt’ and synthetic ‘ketone ester’. This application discloses two primary embodiments for the treatment of psychiatric depressive disorders: the use of bioidentical or ‘free D-BetaHydroxyButyric Acid’ alone as well as in combination with Psilocybin derived pharmaceuticals.

[6] = previously known exogenous ketone compounds, from literature; cited from earlier work

CN(C)CCc1c[nH]c2cccc(OP(=O)(O)O)c12 [Comp360]
Outcome in treatment-resistant depression [1]: promising results

CC(O)CC(=O)O [D-BHB, D-Beta-HydroxyButyric Acid]
Time to rapid ketosis ([2]; 10 g D-BHB with palatability agent): ≤ 45 min | Blood ketone level after administration ([2]; 10 g D-BHB with palatability agent, test subject rising from 0.2 mmol/L): 1.8 mmol/L | Blood ketone level after administration ([2]; 10 g D-BHB with palatability agent, test subject rising from 0.6 mmol/L): 1.9 mmol/L | Blood ketone level after administration ([2]; 15 g D-BHB with palatability agent, rise from 0.1 mmol/L): 2.7 mmol/L | Rapid glucose spike after carbohydrate ingestion [3]: not found | Deep sleep quantity [4]: enhance the quantity of deep sleep obtained | Increase in body ketone level ([4]; CKM): 1.5 mmol/L | Reduction of anxiety and depression [5]: often benefit

C[C@@H](O)CCOC(=O)C[C@@H](C)O [ketone ester, (R)-3-hydroxybutyl (R)-3-hydroxybutyrate]
Ketone increase (blood level) [6]: higher ketone level response
